Measurements as given in ChEMBL document CHEMBL3886312, “Sepiapterin reductase inhibitors for the treatment of pain” (2015).

How the values were obtained:
Sepiapterin reductase [1] = biological target: T1, Sepiapterin reductase (Homo sapiens, UniProt P35270); experiment: (§1) The LC/MS assay monitors the product formation (L-biopterin) and the chromogenic assay measures OD at 420 nm.N-methoxyacetyl serotonin was used as a reference compound (positive control). […] (2) Add 40 uL enzyme/assay buffer.
T1 sequence (P35270 whole entry): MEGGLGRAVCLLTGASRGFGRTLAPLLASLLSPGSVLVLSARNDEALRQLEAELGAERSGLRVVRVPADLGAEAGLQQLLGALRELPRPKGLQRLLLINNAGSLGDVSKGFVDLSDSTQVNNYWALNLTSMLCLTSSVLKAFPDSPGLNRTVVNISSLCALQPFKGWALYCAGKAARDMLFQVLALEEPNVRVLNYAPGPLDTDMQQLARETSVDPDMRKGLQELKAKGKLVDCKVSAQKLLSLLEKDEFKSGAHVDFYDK

Sepiapterin reductase [2] = biological target: T1, Sepiapterin reductase; experiment: as §1, with “LC/MS assay: To screen for SPR inhibition, a biochemical assay based on LC/MS (and chromogenic) read-out has been developed. The” for “The”

IC50 (Sepiapterin reductase [1]): 1100 nM
IC50 (Sepiapterin reductase [2]): 1000 nM
SMILES: COCC(=O)NCCc1c[nH]c2ccc(NS(C)(=O)=O)cc12
